Measurements taken from article PMC11289651, “Ruthenium(II) complexes of curcumin and β-diketone derivatives: effect of structural modifications on their cytotoxicity” (Royal Society Open Science, 2024).
Read-outs that look alike come from different tables or passages of the source.

Key:
Assay type in all cases: cell-based
[1] = tested on: MDA-MB-231 (triple-negative breast cancer); assay: MTT cytotoxicity assay, MDA-MB-231; settings: for IC50: read-out: IC50 MDA-MB-231; for SI^1 = IC50 (MCF-10A)/IC50 (MDA-MB-231): selectivity index
Description: (§1) HTB-26), MCF-7 (hormone-dependent breast cancer, ATCC: HTB−22), A549 (lung cancer, ATCC: CCL-185) and A2780cis (cisplatin-resistant ovarian cancer), and the non-tumour cell lines: MCF-10A (breast epithelial cells, ATCC: CRL-10317) and MRC-5 (lung fibroblast, ATCC: […] All the cells were maintained at 37°C in a humidified incubator with a 5% CO2 atmosphere. […] Then, the cells were treated with the compounds, solubilized in DMSO, at different concentrations and the plates were incubated for 48 h. To solubilize cisplatin, dimethylformamide (DMF) was used. The percentage of DMSO and DMF used in the assay was 0.5%. Afterwards, 50 μl of MTT (0.5 mg ml^−1 in phosphate-buffered saline) was added to each well of the plate and the plates were incubated for 4 h at 37°C. Then, the culture medium was removed, and the water-insoluble formazan crystals formed were solubilized by the addition of 100 μl isopropanol. The absorbance was recorded at 540 nm using a microplate reader. The half maximal inhibitory concentration (IC50) values were obtained using the GRAPHPAD PRISM software.

[2] = tested on: MCF-7 (hormone-dependent breast cancer); assay: MTT cytotoxicity assay, MCF-7; settings: for IC50 fold lower than that of cisplatin: MCF-7 cells; for IC50: read-out: IC50 MCF-7; for SI^2 = IC50 (MCF-10A)/IC50 (MCF-7): selectivity index
Description: as §1

[3] = tested on: MCF-10A (non-tumour breast epithelial cells); assay: MTT cytotoxicity assay, MCF-10A; settings: read-out: IC50 MCF-10A
Description: as §1

[4] = tested on: A2780cis (cisplatin-resistant ovarian cancer); assay: MTT cytotoxicity assay, A2780cis; settings: for IC50: read-out: IC50 A2780cis; for SI^3 = IC50 (MRC-5)/IC50 (A2780cis): selectivity index, column head prints IS^3
Description: as §1

A549 (lung cancer) = assay: MTT cytotoxicity assay, A549; settings: for IC50 of cisplatin fold higher than IC50 of the complex: A549 cells; for IC50: read-out: IC50 A549; for SI^4 = IC50 (MRC-5)/IC50 (A549): selectivity index, column head prints IS^4
Description: as §1

[5] = tested on: MRC-5 (non-tumour lung fibroblast); assay: MTT cytotoxicity assay, MRC-5; settings: read-out: IC50 MRC-5
Description: as §1

[6] = tested on: MDA-MB-231, MCF-7, A549, A2780cis, MRC-5 and MCF-10A cell lines; assay: MTT cytotoxicity assay, all cell lines studied; settings: tested concentrations (<100 µM)
Description: The MDA-MB-231, A549 and MRC5 cell lines were cultured in Dulbecco’s modified eagle medium (DMEM) containing 10% fetal bovine serum (FBS), penicillin (100 IU ml^−1), streptomycin (100 mg ml^−1) and L-glutamine (2 mM). The MCF-7 and A2780cis cells were grown in the Roswell Park Memorial Institute (RPMI) containing 10% FBS, penicillin (100 IU ml^−1), streptomycin (100 mg ml^−1) and L-glutamine (2 mM). The MCF-10A cells were grown in DMEM nutrient mixture F-12 (DMEM F-12) containing 5% fetal horse serum, epidermal growth factor (EGF) (20 ng ml^−1), hydrocortisone (0.5 µg ml^−1), insulin (0.01 mg ml^−1), 1% penicillin and 1% streptomycin. All the cells were maintained at 37°C in a humidified incubator with a 5% CO2 atmosphere.
The cytotoxic activities of the free ligands and complexes were analysed by MTT (3-[4,5-dimethylthiazol-2-yl]-2,5 diphenyl tetrazolium bromide) assay [32]. For that, cells were plated in 96-well plates (1.5 × 10^4 cells well^−1) and kept for 24 h in an incubator with 5% CO2 and 37°C for adherence. Then, the cells were treated with the compounds, solubilized in DMSO, at different concentrations and the plates were incubated for 48 h. […] The percentage of DMSO and DMF used in the assay was 0.5%. […] The absorbance was recorded at 540 nm using a microplate reader.

[7] = Homo sapiens, MDA-MB-231, MTT, 48 h incubation
[8] = Homo sapiens, MCF7, MTT, 48 h incubation
[9] = Homo sapiens, MCF-10A, MTT, 48 h incubation
[10] = Homo sapiens, A549, MTT, 48 h incubation
[11] = Homo sapiens, MRC5, MTT, 48 h incubation

Row | Structure (SMILES) | IC50 ([1]; MTT, 48 h incubation) [µM] | SI^1 = IC50 (MCF-10A)/IC50 (MDA-MB-231) [1] | IC50 ([2]; MTT, 48 h incubation) [µM] | SI^2 = IC50 (MCF-10A)/IC50 (MCF-7) [2] | IC50 ([3]; MTT, 48 h incubation) [µM] | IC50 ([4]; MTT, 48 h incubation) [µM] | SI^3 = IC50 (MRC-5)/IC50 (A2780cis) [4] | IC50 (A549 (lung cancer); MTT, 48 h incubation) [µM] | SI^4 = IC50 (MRC-5)/IC50 (A549) (A549 (lung cancer)) | IC50 ([5]; MTT, 48 h incubation) [µM] | further results
1 | CC(=O)C=C(C)[O-].F[P-](F)(F)(F)(F)F.[Ru+2].c1ccc(-c2ccccn2)nc1.c1ccc(P(c2ccccc2)c2ccccc2)cc1.c1ccc(P(c2ccccc2)c2ccccc2)cc1 [Ru1, [Ru(acac)(PPh3)2(bipy)]PF6] | 2.09 ± 0.46 | 0.81 | 1.86 | 0.91 | 1.7 | 0.59 | 8.34 | 1.43 | 3.44 | 4.92 | IC50 fold lower than that of cisplatin [2]: 7.5 fold; IC50 of cisplatin fold higher than IC50 of the complex (A549 (lung cancer)): 8 fold
2 | F[P-](F)(F)(F)(F)F.O=C(C=C([O-])c1ccccc1)c1ccccc1.[Ru+2].c1ccc(-c2ccccn2)nc1.c1ccc(P(c2ccccc2)c2ccccc2)cc1.c1ccc(P(c2ccccc2)c2ccccc2)cc1 [Ru2, [Ru(dbm)(PPh3)2(bipy)]PF6] | 3.37 | 0.50 | 1.74 | 0.98 | 1.71 | 0.39 | 12.43 | 1.06 | 4.57 | 4.85 | IC50 fold lower than that of cisplatin [2]: 8.0 fold; IC50 of cisplatin fold higher than IC50 of the complex (A549 (lung cancer)): 11 fold
3 | COc1cc(C=CC(=O)C=C([O-])C=Cc2ccc(O)c(OC)c2)ccc1O.F[P-](F)(F)(F)(F)F.[Ru+2].c1ccc(-c2ccccn2)nc1.c1ccc(P(c2ccccc2)c2ccccc2)cc1.c1ccc(P(c2ccccc2)c2ccccc2)cc1 [Ru3, [Ru(cur)(PPh3)2(bipy)]PF6] | 6.8 | 0.94 | – | 0.45 | 6.41 | 0.82 | – | > 30 | – | > 30 | –
4 | CC(=O)CC(C)=O [acac, acetylacetonate] | – | – | – | – | – | – | – | – | – | – | IC50 [1, 7]: > 100 µM; IC50 [2, 8]: > 100 µM; IC50 [3, 9]: > 100 µM; IC50 ([4]; A2780cis, MTT, 48 h incubation): > 100 µM; IC50 (A549 (lung cancer); [10]): > 100 µM; IC50 [5, 11]: > 100 µM; cytotoxic activity (in words) [6]: did not exhibit activity
5 | N.N.[Cl][Pt][Cl] [cisplatin, cis-diamminedichloridoplatinum(II)] | 10.2 | – | 14 | – | 29.4 | – | – | – | – | – | –
6 | COc1cc(/C=C/C(=O)CC(=O)/C=C/c2ccc(O)c(OC)c2)ccc1O [cur, curcumin] | – | 0.57 | – | 0.84 | – | – | 2.24 | – | 0.27 | – | IC50 [1, 7]: 29.7 µM; IC50 [2, 8]: 20 µM; IC50 [3, 9]: 16.9 µM; IC50 ([4]; A2780cis, MTT, 48 h incubation): 4.02 µM; IC50 (A549 (lung cancer); [10]): 33.3 µM; IC50 [5, 11]: 8.99 µM
7 | O=C(CC(=O)c1ccccc1)c1ccccc1 [dbm, dibenzoylmethane] | – | 0.85 | – | 4.34 | – | – | 0.15 | – | 0.41 | – | IC50 ([1]; Homo sapiens, MDA-MB-231, 48 h): 59.6 µM; IC50 ([2]; Homo sapiens, MCF7, 48 h): 11.7 µM; IC50 ([3]; Homo sapiens, MCF-10A, 48 h): 50.7 µM; IC50 ([4]; A2780cis, 48 h): 62.6 µM; IC50 (A549 (lung cancer); Homo sapiens, A549, 48 h): 23.1 µM; IC50 ([5]; Homo sapiens, MRC5, 48 h): 9.54 µM
